Residues, ends and D or L forms follow the SMILES beside them.
Tests used:
[1] = tested on: ALS patients; assay: Open-label Phase 1/2a clinical trial, safety and tolerability (adverse events); assay type: in vivo, human; conditions: eight patients, IV daily, 1.7 mg/kg escalated to 3.2 mg/kg
Procedure: Dose-limiting Toxicity (DLT): DLT is defined as a ≥Grade 3 per subject which is IPL344 drug-related adverse event (using CTCAE Version v.4.03) occurring at any dosing, excluding: • Grade 3 adverse event of hypersensitivity (defined as sinus tachycardia, heavy breathing or rash along the veins or elsewhere) • A transient (resolving within 6 hours of onset) Grade 3 study drug-related adverse event.
Adverse events (AE)—The FDA defines an AE as “any untoward medical occurrence associated with the use of a drug in humans, whether or not considered drug related” (US Department of Health and Human Services, December 2012). Medical conditions present before first administration of IPL344 are considered pre-existing conditions and are documented as medical history. A new condition, event or the worsening of a pre-existing condition is considered an AE from the first dose of administration.
AEs are coded by CTCAE Version v4.03.
Safety Analysis: The Safety population is based on participants having received at least one dose of IPL-344 (exposed population), including participants prematurely withdrawn. AEs are classified by system-organ class and preferred term and then summarized by number and percentage of participants experiencing AEs. […] The IPL344 DLT and maximal tolerated dose (MTD) are assessed and presented. […]

[2] = tested on: ALS patients; conditions: estimated moderate effect; cited from earlier work

Row | Structure (SMILES) | Safety and tolerability profile ([1]; 28 days safety study) | Drug-related adverse events [1] | Extension in patient survival [2]
1 | CC(C)C[C@H](NC(=O)[C@@H]1CCCN1C(=O)[C@@H]1CCCN1C(=O)[C@@H](N)CC(C)C)C(=O)N1CCC[C@H]1C(=O)N[C@@H](Cc1ccc(O)cc1)C(=O)N1CCC[C@H]1C(=O)O [IPL344, LPPLPYP] (H-LPPLPYP-OH) | favorable safety and tolerability profile | No drug-related adverse events | –
2 | CC1=NN(c2ccccc2)C(=O)C1 [edaravone] | – | – | three months extension in patient survival

Source: patent US20210100869A1, “COMPOSITIONS AND METHODS OF USING SAME FOR TREATING AMYOTROPHIC LATERAL SCLEROSIS (ALS)” (Immunity Pharma Ltd., priority 2018, published 2021)
